Source: patent US20240279215A1 (Cytokinetics, Incorporated, priority 2022, published 2024)
pEC50: −log10 of the molar value.

Target: human NAMPT (Homo sapiens (Human), UniProt P43490)
Experiment: NMN fluorescence biochemical assay (human recombinant NAMPT enzyme assay)
Protocol: Compounds described herein were assayed for their ability to stimulate the synthesis of nicotinamide mononucleotide (NMN) by the enzyme NAMPT. The human recombinant enzyme assay measures the activation of the enzyme activity by compounds using recombinant enzyme and substrates in a buffered cell-free system. The assay conditions closely mimic cellular environments. Dose responses were measured using an assay to detect the formation of nicotinamide mono-nucleotide. All experiments were performed in the 384-well format. Generally, 0.5 μL of DMSO containing varying concentrations of the test compound was mixed with 10 μL of the enzyme reagent solution. Enzyme reactions were initiated with the addition of […] containing the substrates. The final assay conditions were as follows: 6 nM human NAMPT, 2.5 mM ATP, 20 μM PRPP and 150 μM nicotinamide in 50 mM HEPES, pH 7.2, 1 mM DTT, 1 mM CHAPS 50 mM NaCl, 100 mM MgCl2. Following an incubation of 60 min at ambient temperature, 10 μL of 20% acetophenone in DMSO was added, followed by 10 μL of 2 M KOH and 40 μL of formic acid. The plates were read for fluorescence (Excitation/Emission=355 nm/460 nm) using an EnVision plate reader after 40 mins of incubation at ambient temperature.

human NAMPT, sequence (P43490 whole entry): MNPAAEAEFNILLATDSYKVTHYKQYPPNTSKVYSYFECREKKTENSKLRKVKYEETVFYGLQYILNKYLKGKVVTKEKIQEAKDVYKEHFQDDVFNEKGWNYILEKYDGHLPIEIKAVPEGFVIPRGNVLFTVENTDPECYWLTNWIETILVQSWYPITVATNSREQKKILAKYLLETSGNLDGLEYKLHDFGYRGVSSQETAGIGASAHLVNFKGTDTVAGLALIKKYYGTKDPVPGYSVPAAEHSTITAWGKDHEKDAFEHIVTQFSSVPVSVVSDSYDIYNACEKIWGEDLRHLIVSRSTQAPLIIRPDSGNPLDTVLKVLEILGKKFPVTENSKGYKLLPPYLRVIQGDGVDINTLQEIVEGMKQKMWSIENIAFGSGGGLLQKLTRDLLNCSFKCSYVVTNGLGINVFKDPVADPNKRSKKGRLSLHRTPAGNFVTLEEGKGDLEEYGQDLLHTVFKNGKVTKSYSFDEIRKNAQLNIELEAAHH

SMILES | AC1.4 Human [µM] | pEC50
Cc1nn(C)c(C(=O)N[C@@H](C)c2ccc(NC(=O)OCc3ccc(Cl)cc3)cc2)c1C [Compound 12, (4-chlorophenyl)methyl N-{4-[(1S)-1-[(2,4,5-trimethylpyrazol-3-yl)formamido]ethyl]phenyl}carbamate] | 0.22 | 6.47
O=C(Nc1ccc(CCC2CCN(C(=O)C3COC3)CC2)cc1)OCc1cnco1 [Compound 13, oxazol-5-ylmethyl (4-(2-(1-(oxetane-3-carbonyl)piperidin-4-yl)ethyl)phenyl)carbamate] | 0.22 | 4.35
NC(=O)c1ccc(COC(=O)Nc2ccc(Cc3ccncc3)cc2)cc1 [Compound 14, 4-carbamoylbenzyl (4-(pyridin-4-ylmethyl)phenyl)carbamate] | 0.23 | 4.97
CC(=O)N1CCC(c2ccc(NC(=O)OCc3ccc(Cl)cc3)cc2)CC1 [Compound 15, (4-chlorophenyl)methyl N-[4-(1-acetylpiperidin-4-yl)phenyl]carbamate] | 0.24 | 5.67
CC(=O)N1CC(OCc2ccc(NC(=O)OCc3ccc(Cl)cc3)cc2)C1 [Compound 16, 4-chlorobenzyl (4-(((1-acetylazetidin-3-yl)oxy)methyl)phenyl)carbamate] | 0.25 | 5.46
CNS(=O)(=O)N1CCC(Cc2ccc(NC(=O)OCc3ccc(Cl)cc3)cc2)CC1 [Compound 17, 4-chlorobenzyl (4-((1-(N-methylsulfamoyl)piperidin-4-yl)methyl)phenyl)carbamate] | 0.25 | 6.05
CS(=O)(=O)N1CCC(Cc2ccc(NC(=O)OCc3cnco3)cc2)CC1 [Compound 18, oxazol-5-ylmethyl (4-((1-(methylsulfonyl)piperidin-4-yl)methyl)phenyl)carbamate] | 0.25 | 4.79
Cc1nn(C)c(C(=O)NCc2ccc(NC(=O)OCc3ccc(Cl)cc3)cc2)c1C [Compound 19, (4-chlorophenyl)methyl N-(4-{[(2,4,5-trimethylpyrazol-3-yl)formamido]methyl}phenyl)carbamate] | 0.26 | 6.23
C[C@H](NC(=O)c1ccnn1C1CCOCC1)c1ccc(NC(=O)OCc2ccc(Cl)cc2)cc1 [Compound 20, (4-chlorophenyl)methyl N-{4-[(1S)-1-{[2-(oxan-4-yl)pyrazol-3-yl]formamido}ethyl]phenyl}carbamate] | 0.29 | 5.59
C[C@H](NC(=O)C1CC2(C1)CC(F)(F)C2)c1ccc(NC(=O)OCc2cnco2)cc1 [Compound 22, 1,3-oxazol-5-ylmethyl N-{4-[(1S)-1-({6,6-difluorospiro[3.3]heptan-2-yl}formamido)ethyl]phenyl}carbamate] | 0.32 | 5.00
O=C(Nc1ccc(CN2CCN(c3cnccn3)CC2)cc1)OCc1ccc(Cl)cc1 [Compound 24, (4-chlorophenyl)methyl N-(4-{[4-(pyrazin-2-yl)piperazin-1-yl]methyl}phenyl)carbamate] | 0.34 | 5.73
Cc1ccc(C(=O)NCc2ccc(NC(=O)OCc3cnco3)cc2)cn1 [Compound 25, oxazol-5-ylmethyl (4-((6-methylnicotinamido)methyl)phenyl)carbamate] | 0.35 | 5.11
CC(=O)N1CCC(CCc2ccc(NC(=O)OCc3cnco3)cc2)CC1 [Compound 26, oxazol-5-ylmethyl (4-(2-(1-acetylpiperidin-4-yl)ethyl)phenyl)carbamate] | 0.35 | 4.56
CN1CCN(Cc2ccc(NC(=O)OCc3ccc(Cl)cc3)cc2)C(=O)C1 [Compound 28, 4-chlorobenzyl (4-((4-methyl-2-oxopiperazin-1-yl)methyl)phenyl)carbamate] | 0.36 | 5.52
O=C(Nc1ccc(CN2CCN(c3ccccn3)CC2)cc1)OCc1ccc(Cl)cc1 [Compound 29, (4-chlorophenyl)methyl N-(4-{[4-(pyridin-2-yl)piperazin-1-yl]methyl}phenyl)carbamate] | 0.37 | 5.82
CN(C)C(=O)N1CCC(Cc2ccc(NC(=O)OCc3cnco3)cc2)CC1 [Compound 30, oxazol-5-ylmethyl (4-((1-(dimethylcarbamoyl)piperidin-4-yl)methyl)phenyl)carbamate] | 0.37 | 4.60
CC(=O)N1CCC(Cc2ccc(NC(=O)OCc3cnco3)cc2)CC1 [Compound 31, oxazol-5-ylmethyl (4-((1-acetylpiperidin-4-yl)methyl)phenyl)carbamate] | 0.37 | 4.66

SMILES | AC1.4 Human [µM] | pEC50
O=C(Nc1ccc(NS(=O)(=O)Cc2ccccc2)cc1)OCc1ccc(Cl)cc1 [Compound 33, 4-chlorobenzyl (4-((phenylmethyl)sulfonamido)phenyl)carbamate] | 0.38 | 6.00
CN(C)S(=O)(=O)N1CCC(Cc2ccc(NC(=O)OCc3ccc(Cl)cc3)cc2)CC1 [Compound 34, 4-chlorobenzyl (4-((1-(N,N-dimethylsulfamoyl)piperidin-4-yl)methyl)phenyl)carbamate] | 0.38 | 6.09
CC(C)C(=O)N1CCC(Cc2ccc(NC(=O)OCc3cnco3)cc2)CC1 [Compound 35, oxazol-5-ylmethyl (4-((1-isobutyrylpiperidin-4-yl)methyl)phenyl)carbamate] | 0.39 | 4.42
CN(Cc1ccc(NC(=O)OCc2ccc(Cl)cc2)cc1)C(=O)c1ccncc1F [Compound 36, (4-chlorophenyl)methyl N-(4-{[1-(3-fluoropyridin-4-yl)-N-methylformamido]methyl}phenyl)carbamate] | 0.40 | 6.00
Cc1ccc(C(=O)NCc2ccc(NC(=O)OCc3ccncc3)cc2)cn1 [Compound 37, pyridin-4-ylmethyl (4-((6-methylnicotinamido)methyl)phenyl)carbamate] | 0.41 | 5.44
CS(=O)(=O)N1CCC(Cc2ccc(NC(=O)OCc3ccc(Cl)cc3)cc2)CC1 [Compound 38, 4-chlorobenzyl (4-((1-(methylsulfonyl)piperidin-4-yl)methyl)phenyl)carbamate] | 0.42 | 5.91
C[C@H](NC(=O)c1ccc(F)cc1)c1ccc(NC(=O)OCc2cnco2)cc1 [Compound 39, 1,3-oxazol-5-ylmethyl N-{4-[(1S)-1-[(4-fluorophenyl)formamido]ethyl]phenyl}carbamate] | 0.43 | 4.72
CN(Cc1ccc(NC(=O)OCc2ccc(Cl)cc2)cc1)C(=O)c1cn[nH]c1 [Compound 41, (4-chlorophenyl)methyl N-{4-[(N-methyl-1-1H-pyrazol-4-ylformamido)methyl]phenyl}carbamate] | 0.44 | 5.46
COC1CCN(C(=O)N(C)Cc2ccc(NC(=O)OCc3ccc(Cl)cc3)cc2)CC1 [Compound 42, 4-chlorobenzyl (4-((4-methoxy-N-methylpiperidine-1-carboxamido)methyl)phenyl)carbamate] | 0.44 | 5.25
C[C@H](NC(=O)c1ccncc1F)c1ccc(NC(=O)OCc2ccc(Cl)cc2)cc1 [Compound 44, (4-chlorophenyl)methyl N-{4-[(1S)-1-[(3-fluoropyridin-4-yl)formamido]ethyl]phenyl}carbamate] | 0.45 | 5.38
Cc1cnn(C)c1C(=O)NCc1ccc(NC(=O)OCc2ccc(Cl)cc2)cc1 [Compound 45, (4-chlorophenyl)methyl N-(4-{[(2,4-dimethylpyrazol-3-yl)formamido]methyl}phenyl)carbamate] | 0.46 | 5.73
Cc1noc(C(=O)N[C@@H](C)c2ccc(NC(=O)OCc3ccc(Cl)cc3)cc2)c1C [Compound 46, 4-chlorobenzyl (S)-(4-(1-(3,4-dimethylisoxazole-5-carboxamido)ethyl)phenyl)carbamate] | 0.48 | 5.59
COc1ccc(COC(=O)Nc2ccc([C@@H](C)C(=O)N3CCC[C@H]3CO)cc2)cc1 [Compound 47] | 0.49 | 5.02
O=C(Nc1ccc(CC2CCN(C(=O)C3COC3)CC2)cc1)OCc1cnco1 [Compound 48, oxazol-5-ylmethyl (4-((1-(oxetane-3-carbonyl)piperidin-4-yl)methyl)phenyl)carbamate] | 0.49 | 4.51
CN(Cc1ccc(NC(=O)OCc2ccc(Cl)cc2)cc1)C(=O)c1cc[nH]n1 [Compound 49, (4-chlorophenyl)methyl N-{4-[(N-methyl-1-1H-pyrazol-3-ylformamido)methyl]phenyl}carbamate] | 0.50 | 5.69
CN(Cc1ccc(NC(=O)OCc2ccc(Cl)cc2)cc1)C(=O)c1ccnn1C [Compound 50, (4-chlorophenyl)methyl N-(4-{[N-methyl-1-(2-methylpyrazol-3-yl)formamido]methyl}phenyl)carbamate] | 0.50 | 6.05
Cc1ccc(Cc2ccc(NC(=O)OCc3cnco3)cc2)cn1 [Compound 51, oxazol-5-ylmethyl (4-((6-methylpyridin-3-yl)methyl)phenyl)carbamate] | 0.50 | 4.39
